Experimental findings from US10189839B2, “Tricyclic imidazole compounds as inhibitors of tryptophan hydroxylase” (ACTELION PHARMACEUTICALS LTD, priority 2013, dated 2019) are described below.

The target of the first assay is T1, full length human TPH1 (Homo sapiens, UniProt P17752).
T1 construct: To generate the enzyme, full length human TPH1 is cloned into the plasmid pET20b(+); made in house; host or cells: E. coli
T1 sequence (P17752 1-444): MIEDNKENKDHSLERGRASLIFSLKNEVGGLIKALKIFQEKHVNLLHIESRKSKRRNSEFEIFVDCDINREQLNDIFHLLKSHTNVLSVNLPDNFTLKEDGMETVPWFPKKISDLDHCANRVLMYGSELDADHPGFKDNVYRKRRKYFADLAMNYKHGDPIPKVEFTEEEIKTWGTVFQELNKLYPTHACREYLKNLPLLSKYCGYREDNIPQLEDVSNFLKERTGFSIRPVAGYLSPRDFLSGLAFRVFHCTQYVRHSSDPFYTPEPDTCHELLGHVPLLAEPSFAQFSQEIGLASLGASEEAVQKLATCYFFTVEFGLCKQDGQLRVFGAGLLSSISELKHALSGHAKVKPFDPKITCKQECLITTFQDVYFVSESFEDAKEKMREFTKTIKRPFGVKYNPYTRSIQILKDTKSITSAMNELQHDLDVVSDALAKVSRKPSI
The assay is described as follows: Biochemical in vitro assay using fluorescence readout (TPH1 enzyme activity). As to conditions: Table 1, mean where determined several times. In short, it runs like this: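 IC50 (mean of repeats) derived from 5-hydroxy-L-tryptophan fluorescence at 540 nm (300 nm excitation) relative to vehicle, after perchloric acid stop. Reaction: 60 min, 15° C., pH 7.6 Tris-HCl, 40 μM L-tryptophan, 100 μM 6-methyltetrahydropterine, DTT, catalase, with 40-80 nM purified full-length human TPH1 from E. coli.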
The IC50 is the concentration that inhibits the measured activity by half. Read a low IC50 as greater potency. The molecule `CCc1nc(NS(C)(=O)=O)ccc1OCC(=O)N1CCc2nc3n(c2C1c1scnc1C)CCCC3` (stereo not drawn) [Example 1.13.1, N-(6-ethyl-5-(2-(1-(4-methylthiazol-5-yl)-3,4,6,7,8,9-hexahydroimidazo[1,2-a:5,4-c′]dipyridin-2(1H)-yl)-2-oxoethoxy)pyridin-2-yl)methanesulfonamide207] yielded a 50% inhibitory concentration (IC50) of 44 nM. In other words, the double-digit nanomolar range.
Consider `CCc1nc(NS(=O)(=O)N(C)C)ccc1OCC(=O)N1CCc2nc3n(c2C1c1ccc(Cl)cc1F)CCS3` (stereo not drawn) [Example 4.1.7, N-(5-(2-(5-(4-chloro-2-fluorophenyl)-2,3,7,8-tetrahydrothiazolo[2′,3′:2,3]imidazo[4,5-c]pyridin-6(5H)-yl)-2-oxoethoxy)-6-ethylpyridin-2-yl)-N′,N′-dimethyl-sulfamide], for which the IC50 came out at 76 nM. This IC50 is about 1.7-fold higher than that of the molecule before.
For the molecule `Cc1nc(C)c(C2c3c(nc4n3CCCC4)CCN2C(=O)COc2ccc(C3CC3)nc2Cl)s1` (stereo not drawn) [Example 1.10.8, 2-((2-chloro-6-cyclopropylpyridin-3-yl)oxy)-1-(1-(2,4-dimethylthiazol-5-yl)-3,4,6,7,8,9-hexahydroimi-dazo[1,2-a:5,4-c′]dipyridin-2(1H)-yl)ethanone], it took 33 nM to reach half-maximal inhibition (IC50).
Regarding `CN(CC(F)(F)F)c1ccc(OCC(=O)N2CCc3nc4n(c3C2c2ccc(Cl)cc2F)CCCC4)c(Cl)n1` (stereo not drawn) [Example 1.1.23, 1-(1-(4-chloro-2-fluorophenyl)-3,4,6,7,8,9-hexahydroimidazo[1,2-a:5,4-c′]dipyridin-2(1H)-yl)-2-((2-chloro-6-(methyl(2,2,2-trifluoroethyl)amino)pyridin-3-yl)oxy)ethan-1-one], the IC50 was determined as 9 nM. This IC50 is about 3.7-fold lower than that of the molecule before.
Molecule `CC(=O)N1CCn2c(nc3c2C(c2ccc(Cl)cc2F)N(C(=O)COc2ccc(N4CC(F)(F)C4)nc2Cl)CC3)C1` (stereo not drawn) [Example 5.1.1, 1-(7-acetyl-1-(4-chloro-2-fluorophenyl)-3,4,6,7,8,9-hexahydropyrido[4′,3′:4,5]imida-zo[1,2-a]pyrazin-2(1H)-yl)-2-((2-chloro-6-(3,3-difluoroazetidin-1-yl)pyridin-3-yl)oxy)ethanone] came in with a half-inhibitory concentration (IC50) of 7 nM. This IC50 and that of the molecule before are within 1.5-fold of each other.
Same read-out and setting: then `Cc1ccc(C2c3c(nc4n3CCCCC4)CCN2C(=O)COc2ccc(NS(C)(=O)=O)nc2Cl)c(F)c1` (stereo not drawn) [Example 3.2.1, N-(6-chloro-5-(2-(1-(2-fluoro-4-methylphenyl)-3,4,7,8,9,10-hexahydro-1 H-pyrido[4′,3′:4,5]imidazo-[1,2-a]azepin-2(6H)-yl)-2-oxoethoxy)pyridin-2-yl)methanesulfonamide], with 21 nM.
`Cc1ccc(C2c3c(nc4n3CCCC4)CCN2C(=O)COc2ccc(C(=O)N(C)C3CC3)nc2Cl)c(F)c1F` (stereo not drawn) [Example 1.9.3, 6-chloro-N-cyclopropyl-5-(2-(1-(2,3-difluoro-4-methyl-phenyl)-3,4,6,7,8,9-hexahydroimidazo[1,2-a:5,4-c′]di-pyridin-2(1H)-yl)-2-oxoethoxy)-N-methylpicolinamide] registered an IC50 of 27 nM.
The molecule `CCc1nc(N2CCCS2(=O)=O)ccc1OCC(=O)N1CCc2nc3n(c2C1c1sc(C)nc1C)CCS3` (stereo not drawn) [Example 4.5.2, 1-(5-(2,4-dimethylthiazol-5-yl)-2,3,7,8-tetrahydrothiazolo[2′,3′:2,3]imidazo[4,5-c]pyridin-6(5H)-yl)-2-((6-(1,1-dioxidoisothiazolidin-2-yl)-2-ethylpyridin-3-yl)oxy)ethanone] returned an IC50 of 10 nM.
The molecule `CCc1nc(N2CCCS2(=O)=O)ccc1OCC(=O)N1CCc2nc3n(c2[C@@H]1c1sc(C)nc1C)CCC3` [Example 2.4.4, (R)-1-(1-(2,4-dimethylthiazol-5-yl)-3,4,7,8-tetrahydro-1H-pyrrolo[2′,1′:2,3]imidazo[4,5-c]pyridin-2(6H)-yl)-2-((6-(1,1-dioxidoisothiazolidin-2-yl)-2-ethylpyridin-3-yl)oxy)ethanone] gave an IC50 of 7 nM. This IC50 and that of the molecule before are within 1.5-fold of each other.
Same read-out and setting: the same measure for `CN(C)C(=O)c1ccc(OC(C)(C)C(=O)N2CCc3nc4n(c3C2c2ccc(Cl)cc2F)CCCC4)c(Cl)n1` (stereo not drawn) [Example 1.1.25, 6-chloro-5-((1-(1-(4-chloro-2-fluorophenyl)-3,4,6,7,8,9-hexahydroimidazo[1,2-a:5,4-c′]dipyridin-2(1H)-yl)-2-methyl-1-oxopropan-2-yl)oxy)-N,N-dimethylpicolinamide]: 146 nM.
The same measure, in the same setting: then `Cc1cnc(C2c3c(nc4n3CCCC4)CCN2C(=O)COc2ccc(-c3ncco3)nc2Cl)c(F)c1` (stereo not drawn) [Example 1.6.2, 2-((2-chloro-6-(oxazol-2-yl)pyridin-3-yl)oxy)-1-(1-(3-fluoro-5-methylpyridin-2-yl)-3,4,6,7,8,9-hexahydroimidazo[1,2-a:5,4-c′]dipyridin-2(1H)-yl)ethanone], with 41 nM; and `Cc1ccc(C2c3c(nc4n3CCCC4)CCN2C(=O)COc2ccc(C(=O)NC3CC3)nc2Cl)c(F)c1F` (stereo not drawn) [Example 1.9.8, 6-chloro-N-cyclopropyl-5-(2-(1-(2,3-difluoro-4-methylphenyl)-3,4,6,7,8,9-hexahydroimidazo[1,2-a:5,4-c′]dipyridin-2(1H)-yl)-2-oxoethoxy)picolinamide], with 16 nM.
The molecule `Cc1ccc(C2c3c(nc4n3CCCC4)CCN2C(=O)COc2ccc(-c3ncco3)nc2Cl)c(F)c1` (stereo not drawn) [Example 1.2.2, 2-((2-chloro-6-(oxazol-2-yl)pyridin-3-yl)oxy)-1-(1-(2-fluoro-4-methylphenyl)-3,4,6,7,8,9-hexahydroimi-dazo[1,2-a:5,4-c′]dipyridin-2(1H)-yl)ethanone] had a half-inhibitory concentration (IC50) of 11 nM.
Consider `O=C(COc1ccc(-c2ncco2)nc1Cl)N1CCc2nc3n(c2C1c1ccc(Cl)cc1F)CCCC3` (stereo not drawn) [Example 1.1.5, 1-(1-(4-chloro-2-fluorophenyl)-3,4,6,7,8,9-hexahydro-imidazo[1,2-a:5,4-c′]dipyridin-2(1H)-yl)-2-((2-chloro-6-(oxazol-2-yl)pyridin-3-yl)oxy)ethanone], for which the IC50 was 21 nM.
On to `CS(=O)(=O)Nc1ccc(OCC(=O)N2CCc3nc4n(c3C2c2ccc(Cl)cc2F)CCCC4)c(C2CC2)n1` (stereo not drawn) [Example 1.1.20, N-(5-(2-(1-(4-chloro-2-fluorophenyl)-3,4,6,7,8,9-hexahydroimidazo[1,2-a:5,4-c′]dipyridin-2(1H)-yl)-2-oxoethoxy)-6-cyclopropylpyridin-2-yl)methanesulfonamide], for which the IC50 was found to be 21 nM.
Regarding `CCOC(=O)c1csc(C2c3c(nc4n3CCCC4)CCN2C(=O)COc2ccc(NS(C)(=O)=O)nc2Cl)n1` (stereo not drawn) [Example 1.5.1, Ethyl 2-(2-(2-((2-chloro-6-(methylsulfonamido)pyridin-3-yl)oxy)acetyl)-1,2,3,4,6,7,8,9-octahydroimidazo[1,2-a:5,4-c′]dipyridin-1-yl)thiazole-4-carboxylate], the half-inhibitory concentration (IC50) was 558 nM.
With `Cc1cnc(C2c3c(nc4n3CCCC4)CCN2C(=O)COc2ccc(N3CCCS3(=O)=O)nc2Cl)c(F)c1` (stereo not drawn) [Example 1.6.5, 2-((2-chloro-6-(1,1-dioxidoisothiazolidin-2-yl)pyridin-3-yl)oxy)-1-(1-(3-fluoro-5-methylpyridin-2-yl)-3,4,6,7,8,9-hexahydroimidazo[1,2-a:5,4-c′]dipyridin-2(1H)-yl)ethanone], the IC50 was 16 nM.

Still in this assay, the particulars now being: Table 2.
With `CNC(=O)c1csc(C2c3c(nc4n3CCCC4)CCN2C(=O)COc2ccc(NS(C)(=O)=O)nc2Cl)n1` (stereo not drawn) [Example 1.7.1, 2-(2-(2-((2-Chloro-6-(methylsulfonamido)pyridin-3-yl)oxy)acetyl)-1,2,3,4,6,7,8,9-octahydroimidazo[1,2-a:5,4-c′]dipyridin-1-yl)-N-methylthiazole-4-carboxamide], the IC50 was 844 nM.
